# Laboratory results: ChEMBL document CHEMBL4342486, “An Alkyne-functionalized Arginine for Solid-Phase Synthesis Enabling "Bioorthogonal" Peptide Conjugation” (ACS Med Chem Lett, 2020)
# How the values were obtained:
# [1] = biological target: Neurotensin receptor type 1 (Homo sapiens, UniProt P30989); assay: Displacement of [3H]UR-MK300 from human NTS1R expressed in human HT-29 cells incubated for 2 hrs by scintillation counting method; type: cell-based
# [2] = Chemical stability of compound in PBS buffer at pH 7.4 at 100 uM incubated for 48 hrs by RP-HPLC analysis; type: physicochemical; conditions: pH 7.4, 48 h
# [3] = biological target: Neuropeptide Y receptor type 4 (Homo sapiens, UniProt P50391); assay: Displacement of [3H]UR-KK200 from human Y4R expressed in CHO cells incubated for 90 mins by microbeta scintillation counting method; type: cell-based
# Sequence of Neuropeptide Y receptor type 4 (P50391 whole entry): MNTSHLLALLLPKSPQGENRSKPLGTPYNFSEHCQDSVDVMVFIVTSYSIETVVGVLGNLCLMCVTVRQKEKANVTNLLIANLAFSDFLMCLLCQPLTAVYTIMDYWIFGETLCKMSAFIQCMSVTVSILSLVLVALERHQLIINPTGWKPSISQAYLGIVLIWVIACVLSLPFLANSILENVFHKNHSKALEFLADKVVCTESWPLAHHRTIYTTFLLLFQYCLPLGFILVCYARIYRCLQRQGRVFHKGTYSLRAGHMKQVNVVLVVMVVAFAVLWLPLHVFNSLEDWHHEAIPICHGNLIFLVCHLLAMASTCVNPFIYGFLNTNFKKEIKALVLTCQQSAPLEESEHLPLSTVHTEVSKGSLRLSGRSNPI
# Sequence of Neurotensin receptor type 1 (P30989 whole entry): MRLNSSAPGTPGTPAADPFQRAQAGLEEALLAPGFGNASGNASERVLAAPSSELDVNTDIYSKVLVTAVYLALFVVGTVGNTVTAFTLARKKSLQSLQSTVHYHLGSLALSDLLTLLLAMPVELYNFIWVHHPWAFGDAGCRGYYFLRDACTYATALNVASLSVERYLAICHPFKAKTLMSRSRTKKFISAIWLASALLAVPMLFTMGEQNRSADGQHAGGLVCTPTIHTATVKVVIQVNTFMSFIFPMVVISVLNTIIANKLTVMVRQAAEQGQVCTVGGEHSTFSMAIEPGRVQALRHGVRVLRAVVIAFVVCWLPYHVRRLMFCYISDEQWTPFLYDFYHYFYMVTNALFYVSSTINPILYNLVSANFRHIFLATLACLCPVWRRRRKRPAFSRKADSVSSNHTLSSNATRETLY
SMILES,Ki ([1]; read-out: Ki) [nM],Stability [2],Ki ([1]; read-out: pKi (converted)) [nM],Ki [3] [nM]
CC(C)C[C@H](NC(=O)[C@@H](NC(=O)[C@H](Cc1ccc(O)cc1)NC(=O)[C@@H]1CCCN1C(=O)[C@H](CCCNC(=N)N)NC(=O)[C@@H](N)CCCNC(=N)NC(=O)NCCCCc1cn(CCCNC(=O)CCCCCN2/C(=C/C=C/C=C/C3=[N+](C)c4ccc5c(S(=O)(=O)[O-])cc(S(=O)(=O)O)cc5c4C3(C)C)C(C)(C)c3c2ccc2c(S(=O)(=O)O)cc(S(=O)(=O)O)cc32)nn1)C(C)(C)C)C(=O)O,50,Stable,,
C#CCCCCNC(=O)NC(=N)NCCC[C@H](NC(=O)[C@H](CCCNC(=N)N)NC)C(=O)N1CCC[C@H]1C(=O)N[C@@H](Cc1ccc(O)cc1)C(=O)N[C@H](C(=O)N[C@@H](CC(C)C)C(=O)O)C(C)(C)C,9.6,,9.33,
CC(=O)N[C@@H](CCCNC(=N)NC(=O)NCCCCc1cn(CCCNC(=O)CCCCCN2/C(=C/C=C/C=C/C3=[N+](C)c4ccc5c(S(=O)(=O)[O-])cc(S(=O)(=O)O)cc5c4C3(C)C)C(C)(C)c3c2ccc2c(S(=O)(=O)O)cc(S(=O)(=O)O)cc32)nn1)C(=O)N[C@@H](Cc1ccc(O)cc1)C(=O)N[C@@H](CCCNC(=N)N)C(=O)N[C@@H](CC(C)C)C(=O)N[C@@H](CCCNC(=N)N)C(=O)N[C@@H](Cc1ccc(O)cc1)C(N)=O,,Stable,,33
C#CCCCCNC(=O)NC(=N)NCCC[C@H](NC(=O)[C@@H](N)CCCNC(=N)N)C(=O)N1CCC[C@H]1C(=O)N[C@@H](Cc1ccc(O)cc1)C(=O)N[C@H](C(=O)N[C@@H](CC(C)C)C(=O)O)C(C)(C)C,9.4,,,
C#CCCCCNC(=O)NC(=N)NCCC[C@H](N)C(=O)N[C@@H](CCCNC(=N)N)C(=O)N1CCC[C@H]1C(=O)N[C@@H](Cc1ccc(O)cc1)C(=O)N[C@H](C(=O)N[C@@H](CC(C)C)C(=O)O)C(C)(C)C,4.2,,4.07,
